Source: article PMC9865193, “Improvement of the Chemical Reactivity of Michael Acceptor of Ethacrynic Acid Correlates with Antiproliferative Activities” (Molecules, 2023)

Key:
[1] = system: HL60 cells; assay: MTS cell growth inhibition assay, HL60; format: cell-based, human; settings: for IC50: Homo sapiens, HL-60, read-out: IC50 antiproliferative activity against HL60; for Selectivity index (SI) MRC5/HL60: ratio of IC50 MRC5/IC50 HL60
From the text: Based on a multiple target assay, all the prepared compounds (6–10) were first evaluated against HL60 leukemia cells to assess their in vitro antiproliferative activities. As mentioned in the Table 1, the obtained results were expressed as half-maximal inhibitory concentration (IC50) values with the average of at least three independent experiments and are compared to EA.
(§1) All cancer cell lines (HCT116, A549, MCF7, PC3, U87-MG, SKOV3, and MRC5) were obtained from the European Collection of Cell Culture (ECACC, Salisbury, UK) or from the American Type Culture Collection (Rockville, MD, USA) and were cultured according to the supplier’s instructions. Human HCT-116 colorectal carcinoma, MCF7 breast adenocarcinoma, PC3 prostate adenocarcinoma, A549 lung carcinoma, and SK-OV-3 ovary carcinoma were grown in Gibco McCoy’s 5A supplemented with 10% fetal calf serum (FCS) and 1% glutamine. HL60 myelogenous leukemia cells were grown in RPMI 1640 supplemented with 10% fetal calf serum (FCS) and 1% glutamine. U87-MG glioblastoma and human MRC-5 cells were grown in Gibco medium DMEM supplemented with 10% fetal calf serum (FCS) and 1% glutamine. Cells were maintained at 37 °C in a humidified atmosphere containing 5% CO2. Cell growth inhibition was determined by an MTS assay according to the manufacturer’s instructions (Promega, Madison, WI, USA). Briefly, the cells were seeded in 96-well plates (2.5 × 10^3 cells/well) containing 100 μL of growth medium. After 24 h of culture, the cells were treated with the tested compounds at 10 different final concentrations. After incubation for 72 h, 20 µL of Cell Titer 96®AQueous. One Solution Reagent was added for 2 h before recording absorbance at 490nm with a spectrophotometric plate reader. The concentration–response curves were generated with Graph Prism software and the 50% inhibition concentration values (IC50) were calculated from polynomial curves (four or five-parameter logistic equations).

[2] = system: MCF7 cells; assay: MTS cell growth inhibition assay, MCF7; format: cell-based, human; settings: for IC50: Homo sapiens, MCF7, 72 h of exposure, read-out: IC50 antiproliferative activity MCF7; for Selectivity index (SI) MRC5/MCF7: ratio of IC50 MRC5/IC50 MCF7
Method: (§2) Moreover, in order to evaluate the safety index, their effect on the proliferation of human lung fibroblasts (MCR5) as a normal cell line was also studied.
(§3) All cancer cell lines (HCT116, A549, MCF7, PC3, U87-MG, SKOV3, and MRC5) were obtained from the European Collection of Cell Culture (ECACC, Salisbury, UK) or from the American Type Culture Collection (Rockville, MD, USA) and were cultured according to the supplier’s instructions. […] U87-MG glioblastoma and human MRC-5 cells were grown in Gibco medium DMEM supplemented with 10% fetal calf serum (FCS) and 1% glutamine. Cells were maintained at 37 °C in a humidified atmosphere containing 5% CO2. Cell growth inhibition was determined by an MTS assay according to the manufacturer’s instructions (Promega, Madison, WI, USA). Briefly, the cells were seeded in 96-well plates (2.5 × 10^3 cells/well) containing 100 μL of growth medium. After 24 h of culture, the cells were treated with the tested compounds at 10 different final concentrations. After incubation for 72 h, 20 µL of Cell Titer 96®AQueous. One Solution Reagent was added for 2 h before recording absorbance at 490nm with a spectrophotometric plate reader.

[3] = system: A549 cells; assay: MTS cell growth inhibition assay, A549; format: cell-based, human; settings: for IC50: Homo sapiens, A549, 72 h of exposure, read-out: IC50 antiproliferative activity A549; for Selectivity index (SI) MRC5/A549: ratio of IC50 MRC5/IC50 A549
Method: as §2, §3

[4] = system: MRC5 cells; assay: MTS cell growth inhibition assay, normal cell line MRC5; format: cell-based; settings: MRC5 normal human lung fibroblasts, 72 h of exposure; read-out: IC50 antiproliferative activity MRC5
Method: as §2, §1

[5] = system: PC3 cells; assay: MTS cell growth inhibition assay, PC3; format: cell-based, human; settings: for IC50: Homo sapiens, PC-3, PC3, 72 h of exposure, read-out: IC50 antiproliferative activity PC3; for Selectivity index (SI) MRC5/PC3: ratio of IC50 MRC5/IC50 PC3
Method: as §2, §1

[6] = system: U87-MG cells; assay: MTS cell growth inhibition assay, U87-MG; format: cell-based, human; settings: for IC50: Homo sapiens, U-87 MG, U87-MG, 72 h of exposure, read-out: IC50 antiproliferative activity U87-MG; for Selectivity index (SI) MRC5/U87-MG: ratio of IC50 MRC5/IC50 U87-MG
Method: as §2, §3

[7] = system: SKOV3 cells; assay: MTS cell growth inhibition assay, SKOV3; format: cell-based, human; settings: for IC50: Homo sapiens, SK-OV-3, SKOV3, 72 h of exposure, read-out: IC50 antiproliferative activity SKOV3; for Selectivity index (SI) MRC5/SKOV3: ratio of IC50 MRC5/IC50 SKOV3
Method: as §2, §1

[8] = system: HCT116 cells; assay: MTS cell growth inhibition assay, HCT116; format: cell-based, human; settings: for IC50: Homo sapiens, HCT-116, HCT116, 72 h of exposure, read-out: IC50 antiproliferative activity HCT116; for Selectivity index (SI) MRC5/HCT116: ratio of IC50 MRC5/IC50 HCT116
Method: as §2, §3

IC50 ([1]; HL60 leukemia cells, 72 h, MTS) [nM]	IC50 [2] [nM]	IC50 [3] [nM]	IC50 [5] [nM]	IC50 [6] [nM]	IC50 [7] [nM]	IC50 [8] [nM]	IC50 antiproliferative activity against HL60 ([1]; HL60 leukemia cells, 72 h, MTS)	SMILES	Selectivity index (SI) MRC5/MCF7 [2]	Selectivity index (SI) MRC5/HL60 [1]	Selectivity index (SI) MRC5/A549 [3]	IC50 [4] [nM]	Selectivity index (SI) MRC5/PC3 [5]	Selectivity index (SI) MRC5/U87-MG [6]	Selectivity index (SI) MRC5/SKOV3 [7]	Selectivity index (SI) MRC5/HCT116 [8]
> 10000								C=C(CC)C(=O)c1ccc(OCC(=O)O)cc1O [Compound 6, 2-(3-Hydroxy-4-(2-methylenebutanoyl)phenoxy)acetic acid]								
1700 ± 520	528 ± 16.9	285 ± 67.8	485 ± 20.9	1610 ± 355	1510 ± 363	920 ± 20		C=C(CC)C(=O)c1ccc(OCC(=O)NCCCC)cc1O [Compound 7, N-Butyl-2-(3-hydroxy-4-(2-methylenebutanoyl)phenoxy)acetamide]	1.60	0.50	2.98	850 ± 110	1.75	0.52	0.56	0.93
							inactive	C=C(CC)C(=O)c1ccc(OCC(=O)NCCCC)c(Cl)c1Cl [Compound 9, N-Butyl-2-(2,3-dichloro-4-(2-methylenebutanoyl)phenoxy)acetamide]								

Further lines, the compound ahead of its results:

SMILES	IC50 ([1]; HL60 leukemia cells, 72 h, MTS) [nM]	IC50 [2] [nM]	IC50 [3] [nM]	IC50 [5] [nM]	IC50 [6] [nM]	IC50 [7] [nM]	IC50 [8] [nM]	IC50 antiproliferative activity against HL60 ([1]; HL60 leukemia cells, 72 h, MTS)	Selectivity index (SI) MRC5/MCF7 [2]	Selectivity index (SI) MRC5/HL60 [1]	Selectivity index (SI) MRC5/A549 [3]	IC50 [4] [nM]	Selectivity index (SI) MRC5/PC3 [5]	Selectivity index (SI) MRC5/U87-MG [6]	Selectivity index (SI) MRC5/SKOV3 [7]	Selectivity index (SI) MRC5/HCT116 [8]
C#CCOc1ccc(C(=O)C(=C)CC)c(O)c1 [Compound 8, 1-(2-Hydroxy-4-(prop-2-yn-1-yloxy)phenyl)-2-methylenebutan-1-one]	15 ± 6	61.5 ± 0.9	41.2 ± 1.88	68.7 ± 3.7	369 ± 50.1	138 ± 53.8	1260 ± 80		5.69	23.33	8.49	350 ± 40	5.09	0.94	2.53	0.27
C#CCOc1ccc(C(=O)C(=C)CC)c(Cl)c1Cl [Compound 10]	580 ± 40															
COc1cccc2c1C(=O)c1c(O)c3c(c(O)c1C2=O)C[C@@](O)(C(=O)CO)C[C@@H]3O[C@H]1C[C@H](N)[C@H](O)[C@H](C)O1 [Doxorubicin, doxorubicin, reference compound]		120 ± 9	56.6 ± 0.84	2.09 ± 0.03	99.6 ± 2.34		90 ± 3					39.9 ± 1.22				
